Assay results published in patent US6919362B2, “Heterocyclic derivatives, preparation method and pharmaceutical compositions containing same” (Les Laboratoires Servier, priority 2000, dated 2005).

Assays:
ob/ob mouse = assay: Antidiabetic and hypolipidaemic effect in the ob/ob mouse; assay type: in vivo; conditions: for reduction of glycaemia: glycaemia 24 hours after the final administration
Text: Mutations in laboratory animals and also different sensitivities to dietary regimens have allowed the development of animal models having non-insulin dependent diabetes and hyperlipidaemia associated with obesity and with resistance to insulin.
Genetic mice models (ob/ob) (Diabetes, 1982, 31 (1), 1-6) and Zucker (fa/fa) rats have been developed by various laboratories in order to understand the physiopathology of those diseases and test the effectiveness of new antidiabetic compounds (Diabetes, 1983, 32, 830-838).
The 10-week-old female ob/ob mouse (Harlan) is used for the in vivo tests. The animals are kept in a light-darkness cycle of 12 hours at 25° C. The mouse has a basal hyperglycaemia of 2 g/l. The animals are randomly selected in terms of their glycaemia to form groups of six. The compounds tested by the intraperitoneal route are dissolved in a mixture of dimethyl sulphoxide (10%) and solutol (15%) to be administered at 10 mg/kg in a volume of 2.5 ml/kg twice per day for four days. By the per os route, the compounds are tested at 30 mg/kg administered in a volume of 2.5 ml/kg of 1%, HEC twice per day for four days. The control groups receive the solvents under the same conditions as the treated groups. The activity of the products is evaluated by measuring glycaemia 24 hours after the final administration and by measuring body weight daily.

CN(CCOc1ccc(CC2SC(=O)NC2=O)cc1)c1ccccn1 (centres unmarked) [rosiglitazone, reference compound]
variation in body weight (ob/ob mouse; ob/ob mouse, in four days, body weight measured daily): +4%

COC(=O)C(=Cc1ccc(OCCn2c(=O)sc3cc(C(=O)Nc4ccccc4)ccc32)cc1)C(=O)OC [Example 84, Dimethyl 2-{4-[2-(6-(anilinocarbonyl)-2-oxo-1,3-benzothiazol-3(2H)-yl)ethoxy]benzylidene}malonate]
melting point: 102 to 105 °C

COC(=O)C(=Cc1ccc(OCCn2c(=O)sc3cc(NC(=O)c4ccccc4)ccc32)cc1)C(=O)OC [Example 76, Dimethyl 2-{4-[2-(6-(benzoylamino)-2-oxo-1,3-benzothiazol-3(2H)-yl)ethoxy]benzylidene}malonate]
melting point: 186 to 190 °C

COC(=O)C(Cc1ccc(OCCn2c(=O)sc3cc(C(=O)c4ccccc4)ccc32)cc1)C(=O)OC [Example 18, Dimethyl 2-{4-[2-(6-benzoyl-2-oxo-1,3-benzothiazol-3(2H)-yl)-ethoxy]benzyl}malonate]
reduction of glycaemia (ob/ob mouse; 10 mg/kg i.p. twice per day for four days): 45%
reduction of glycaemia (ob/ob mouse; 30 mg/kg per os twice per day for four days): 43%
